From US20260232006A1, “EMULSIONS FOR NICOTINE ENCAPSULATION” (NICOVENTURES TRADING LIMITED, priority 2023, published 2026)

Experiments:
[1] = cited from earlier work
[2] = in mixture of mono- and diglycerides of capric and caprylic acid (Capmul MCM); 48 h at 30° C.
Method: Samples were blanketed with nitrogen, sonicated for 30 min, then placed in a thermostatic orbital shaker and continuously shaken at 300 rpm for 48 h at 30° C.

| Structure (SMILES) | solubility in water [1] | solubility in fats and alcohols [1] | chemical stability ([1]; isolated, isomerizes to trans-bixin) | highest nicotine benzoate solubility in oil without sedimentation [2] |
| --- | --- | --- | --- | --- |
| CC(/C=C/C=C(C)/C=C/C(=O)O)=C\C=C\C=C(C)\C=C\C=C(C)\C=C\C(=O)O (stereo in doubt) [norbixin, (2E,4E,6E,8E,10E,12E,14E,16E,18E)-4,8,13,17-tetramethylicosa-2,4,6,8,10,12,14,16,18-nonaenedioic acid] | water-soluble | – | – | – |
| COC(=O)/C=C/C(C)=C\C=C\C(C)=C\C=C\C=C(C)\C=C\C=C(C)\C=C\C(=O)O [bixin, (2E,4E,6E,8E,10E,12E,14E,16Z,18E)-20-methoxy-4,8,13,17-tetramethyl-20-oxoicosa-2,4,6,8,10,12,14,16,18-nonaenoic acid] | insoluble | soluble | chemically unstable when isolated | – |
| CN1CCCC1c1cccnc1.O=C(O)c1ccccc1 (centres unmarked) [nicotine benzoate] | – | – | – | 30 % by weight |
